*1 amine or outer side, *2 acyl side, *3 side chain or, on linkers, in order; H or OH if unused. Where a SMILES comes first, the peptide text is derived from it. [ ]: non-standard residue; d: D form. Trp(4-Cl)(βS-Me) = C[C@@H](c1c[nH]c2cccc(Cl)c12)[C@H](N)C(=O)O; Trp(βS-Me,4-F) = C[C@@H](c1c[nH]c2cccc(F)c12)[C@H](N)C(=O)O; Bip(4'-COOH) = N[C@@H](Cc1ccc(-c2ccc(C(=O)O)cc2)cc1)C(=O)O; Phe(3-CH2NH2) = O=C([C@H](Cc1cccc(CN[*:3])c1)N[*:1])[*:2]; Phe(4-COOH) = N[C@@H](Cc1ccc(C(=O)O)cc1)C(=O)O; Phe(4-CH2NH2) = NCc1ccc(C[C@H](N)C(=O)O)cc1; Phe(3-NH2) = Nc1cccc(C[C@H](N)C(=O)O)c1; Phe(4-NH2) = Nc1ccc(C[C@H](N)C(=O)O)cc1; Pro(4R-NH2) = N[C@H]1CN[C@H](C(=O)O)C1; hTyr = N[C@@H](CCc1ccc(O)cc1)C(=O)O; dDab = NCC[C@@H](N)C(=O)O; Orn = NCCC[C@H](N)C(=O)O; dNMeA = CN[C@H](C)C(=O)O; Dap = NC[C@H](N)C(=O)O

This experiment deals with T1, Recombinant human IL-1β (Homo sapiens, UniProt P01584).
T1 construct: purchased BioLegend 579404
T1 sequence (P01584 117-269): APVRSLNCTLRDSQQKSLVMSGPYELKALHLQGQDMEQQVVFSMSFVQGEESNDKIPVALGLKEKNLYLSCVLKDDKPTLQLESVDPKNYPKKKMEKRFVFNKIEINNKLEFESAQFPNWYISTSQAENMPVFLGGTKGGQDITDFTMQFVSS
As to the kind of experiment: IL-6 assay in MRC5 cells: inhibition of IL-1β induced IL-6 secretion (AlphaLISA). It counts as cell-based. Particulars: inhibition of IL-1β induced IL-6 secretion in MRC5 cells; IL-1β pre-incubated 1 hour with compound; read-out: MRC5 IC50. In outline:
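IL-1β at 2×EC80 in seeding medium (EMEM, 0.025% BSA) preincubated 1 h at ambient temperature with compound, then 3000 MRC5 cells/well added and incubated overnight at 37 °C, 5% CO2. IL-6 in conditioned medium quantified by AlphaLISA; IC50 from 4-parameter logistic fit.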
On the technique in general: Alpha assays give light when donor and acceptor beads are brought close together.
For orientation: IC50 means the concentration needed to halve the response being measured. As for `C[C@@H]1C(=O)NCC(=O)N[C@@H](Cc2ccc(-c3ccc(C(=O)O)cc3)cc2)C(=O)N[C@@H](CCCCN)C(=O)N[C@@H](CO)C(=O)N[C@H](CCN)C(=O)N[C@@H](CCc2ccc(O)cc2)C(=O)N[C@@H](Cc2ccc(-c3ccc(C(=O)O)cc3)cc2)C(=O)N[C@@H](Cc2c[nH]c3ccccc23)C(=O)N[C@@H](Cc2ccc(C(=O)O)cc2)C(=O)NCC(=O)N2C[C@H](N)C[C@H]2C(=O)N[C@@H]([C@@H](C)c2c[nH]c3cccc(Cl)c23)C(=O)N[C@@H](CC(=O)O)C(=O)N1C` [Example 46] (cyclo([Bip(4'-COOH)]W[Phe(4-COOH)]G[Pro(4R-NH2)][Trp(4-Cl)(βS-Me)]D[dNMeA]G[Bip(4'-COOH)]KS[dDab][hTyr])), the IC50 amounted to 0.134 nM.

As for `C[C@@H]1C(=O)NCC(=O)N[C@@H](Cc2ccc(-c3ccc(C(=O)O)cc3)cc2)C(=O)N[C@@H](CCCCN)C(=O)N[C@@H](CO)C(=O)N[C@H](CO)C(=O)N[C@@H](CCc2ccc(O)cc2)C(=O)N[C@@H](Cc2ccc(-c3ccc(C(=O)O)cc3)cc2)C(=O)N[C@@H](Cc2c[nH]c3ccccc23)C(=O)N[C@@H](Cc2ccc(C(=O)O)cc2)C(=O)NCC(=O)N2C[C@H](N)C[C@H]2C(=O)N[C@@H]([C@@H](C)c2c[nH]c3cccc(Cl)c23)C(=O)N[C@@H](CC(=O)O)C(=O)N1C` [Example 47] (cyclo([Bip(4'-COOH)]W[Phe(4-COOH)]G[Pro(4R-NH2)][Trp(4-Cl)(βS-Me)]D[dNMeA]G[Bip(4'-COOH)]KS[dS][hTyr])), the IC50 was 0.123 nM.

As to `C[C@@H]1C(=O)NCC(=O)N[C@@H](Cc2ccc(-c3ccc(C(=O)O)cc3)cc2)C(=O)N[C@@H](Cc2cccc(CN)c2)C(=O)N[C@@H](CO)C(=O)N[C@H](C)C(=O)N[C@@H](CCc2ccc(O)cc2)C(=O)N[C@@H](Cc2ccc(-c3ccc(C(=O)O)cc3)cc2)C(=O)N[C@@H](Cc2c[nH]c3ccccc23)C(=O)N[C@@H](Cc2ccc(C(=O)O)cc2)C(=O)NCC(=O)N2C[C@H](N)C[C@H]2C(=O)N[C@@H]([C@@H](C)c2c[nH]c3cccc(Cl)c23)C(=O)N[C@@H](CC(=O)O)C(=O)N1C` [Example 48] (cyclo([Bip(4'-COOH)]W[Phe(4-COOH)]G[Pro(4R-NH2)][Trp(4-Cl)(βS-Me)]D[dNMeA]G[Bip(4'-COOH)][Phe(3-CH2NH2)]S[dA][hTyr])), the IC50 was 0.041 nM.

Regarding `C[C@@H]1C(=O)NCC(=O)N[C@@H](Cc2ccc(-c3ccc(C(=O)O)cc3)cc2)C(=O)N[C@@H](CCCN)C(=O)N[C@@H](CO)C(=O)N[C@H](C)C(=O)N[C@@H](CCc2ccc(O)cc2)C(=O)N[C@@H](Cc2ccc(-c3ccc(C(=O)O)cc3)cc2)C(=O)N[C@@H](Cc2c[nH]c3ccccc23)C(=O)N[C@@H](Cc2ccc(C(=O)O)cc2)C(=O)NCC(=O)N2C[C@H](N)C[C@H]2C(=O)N[C@@H]([C@@H](C)c2c[nH]c3cccc(Cl)c23)C(=O)N[C@@H](CC(=O)O)C(=O)N1C` [Example 49] (cyclo([Bip(4'-COOH)]W[Phe(4-COOH)]G[Pro(4R-NH2)][Trp(4-Cl)(βS-Me)]D[dNMeA]G[Bip(4'-COOH)][Orn]S[dA][hTyr])), the IC50 is 0.402 nM.

As for `C[C@@H]1C(=O)NCC(=O)N[C@@H](Cc2ccc(-c3ccc(C(=O)O)cc3)cc2)C(=O)N[C@@H](Cc2cccc(N)c2)C(=O)N[C@@H](CO)C(=O)N[C@H](C)C(=O)N[C@@H](CCc2ccc(O)cc2)C(=O)N[C@@H](Cc2ccc(-c3ccc(C(=O)O)cc3)cc2)C(=O)N[C@@H](Cc2c[nH]c3ccccc23)C(=O)N[C@@H](Cc2ccc(C(=O)O)cc2)C(=O)NCC(=O)N2C[C@H](N)C[C@H]2C(=O)N[C@@H]([C@@H](C)c2c[nH]c3cccc(Cl)c23)C(=O)N[C@@H](CC(=O)O)C(=O)N1C` [Example 50] (cyclo([Bip(4'-COOH)]W[Phe(4-COOH)]G[Pro(4R-NH2)][Trp(4-Cl)(βS-Me)]D[dNMeA]G[Bip(4'-COOH)][Phe(3-NH2)]S[dA][hTyr])), the IC50 worked out at 0.52 nM.

Regarding `C[C@@H]1C(=O)NCC(=O)N[C@@H](Cc2ccc(-c3ccc(C(=O)O)cc3)cc2)C(=O)N[C@@H](Cc2ccc(CN)cc2)C(=O)N[C@@H](CO)C(=O)N[C@H](C)C(=O)N[C@@H](CCc2ccc(O)cc2)C(=O)N[C@@H](Cc2ccc(-c3ccc(C(=O)O)cc3)cc2)C(=O)N[C@@H](Cc2c[nH]c3ccccc23)C(=O)N[C@@H](Cc2ccc(C(=O)O)cc2)C(=O)NCC(=O)N2C[C@H](N)C[C@H]2C(=O)N[C@@H]([C@@H](C)c2c[nH]c3cccc(Cl)c23)C(=O)N[C@@H](CC(=O)O)C(=O)N1C` [Example 51] (cyclo([Bip(4'-COOH)]W[Phe(4-COOH)]G[Pro(4R-NH2)][Trp(4-Cl)(βS-Me)]D[dNMeA]G[Bip(4'-COOH)][Phe(4-CH2NH2)]S[dA][hTyr])), the IC50 amounted to 0.32 nM.

Regarding `C[C@@H]1C(=O)NCC(=O)N[C@@H](Cc2ccc(-c3ccc(C(=O)O)cc3)cc2)C(=O)N[C@@H](Cc2ccc(N)cc2)C(=O)N[C@@H](CO)C(=O)N[C@H](C)C(=O)N[C@@H](CCc2ccc(O)cc2)C(=O)N[C@@H](Cc2ccc(-c3ccc(C(=O)O)cc3)cc2)C(=O)N[C@@H](Cc2c[nH]c3ccccc23)C(=O)N[C@@H](Cc2ccc(C(=O)O)cc2)C(=O)NCC(=O)N2C[C@H](N)C[C@H]2C(=O)N[C@@H]([C@@H](C)c2c[nH]c3cccc(Cl)c23)C(=O)N[C@@H](CC(=O)O)C(=O)N1C` [Example 52] (cyclo([Bip(4'-COOH)]W[Phe(4-COOH)]G[Pro(4R-NH2)][Trp(4-Cl)(βS-Me)]D[dNMeA]G[Bip(4'-COOH)][Phe(4-NH2)]S[dA][hTyr])), the IC50 came to 0.454 nM.

For `C[C@@H]1C(=O)NCC(=O)N[C@@H](Cc2ccc(-c3ccc(C(=O)O)cc3)cc2)C(=O)N[C@@H](Cc2c[nH]c3ccccc23)C(=O)N[C@@H](CN)C(=O)N[C@H](C)C(=O)N[C@@H](CCc2ccc(O)cc2)C(=O)N[C@@H](Cc2ccc(-c3ccc(C(=O)O)cc3)cc2)C(=O)N[C@@H](Cc2c[nH]c3ccccc23)C(=O)N[C@@H](Cc2ccc(C(=O)O)cc2)C(=O)NCC(=O)N2C[C@H](N)C[C@H]2C(=O)N[C@@H]([C@@H](C)c2c[nH]c3cccc(Cl)c23)C(=O)N[C@@H](CC(=O)O)C(=O)N1C` [Example 53] (cyclo([Bip(4'-COOH)]W[Phe(4-COOH)]G[Pro(4R-NH2)][Trp(4-Cl)(βS-Me)]D[dNMeA]G[Bip(4'-COOH)]W[Dap][dA][hTyr])), the IC50 came out at 0.0418 nM.

For `C[C@@H]1C(=O)NCC(=O)N[C@@H](Cc2ccc(-c3ccc(C(=O)O)cc3)cc2)C(=O)N[C@@H](Cc2c[nH]c3ccccc23)C(=O)NCC(=O)N[C@H](CCN)C(=O)N[C@@H](CCc2ccc(O)cc2)C(=O)N[C@@H](Cc2ccc(-c3ccc(C(=O)O)cc3)cc2)C(=O)N[C@@H](Cc2c[nH]c3ccccc23)C(=O)N[C@@H](Cc2ccc(C(=O)O)cc2)C(=O)NCC(=O)N2C[C@H](N)C[C@H]2C(=O)N[C@@H]([C@@H](C)c2c[nH]c3cccc(Cl)c23)C(=O)N[C@@H](CC(=O)O)C(=O)N1C` [Example 54] (cyclo([Bip(4'-COOH)]W[Phe(4-COOH)]G[Pro(4R-NH2)][Trp(4-Cl)(βS-Me)]D[dNMeA]G[Bip(4'-COOH)]WG[dDab][hTyr])), the IC50 worked out at 0.0692 nM.

Turning to `C[C@@H]1C(=O)NCC(=O)N[C@@H](Cc2ccc(-c3ccc(C(=O)O)cc3)cc2)C(=O)N[C@@H](Cc2c[nH]c3ccccc23)C(=O)NCC(=O)N[C@H](CCN)C(=O)N[C@@H](CCc2ccc(O)cc2)C(=O)N[C@@H](Cc2ccc(-c3ccc(C(=O)O)cc3)cc2)C(=O)N[C@@H](Cc2c[nH]c3ccccc23)C(=O)N[C@@H](Cc2ccc(C(=O)O)cc2)C(=O)NCC(=O)N2C[C@H](N)C[C@H]2C(=O)N[C@@H]([C@@H](C)c2c[nH]c3cccc(Cl)c23)C(=O)N[C@@H](CCC(=O)O)C(=O)N1C` [Example 55] (cyclo([Bip(4'-COOH)]W[Phe(4-COOH)]G[Pro(4R-NH2)][Trp(4-Cl)(βS-Me)]E[dNMeA]G[Bip(4'-COOH)]WG[dDab][hTyr])), the IC50 is 0.0493 nM.

In the case of `C[C@@H]1C(=O)NCC(=O)N[C@@H](Cc2ccc(-c3ccc(C(=O)O)cc3)cc2)C(=O)N[C@@H](Cc2c[nH]c3ccccc23)C(=O)NCC(=O)N[C@H](CCN)C(=O)N[C@@H](CCc2ccc(O)cc2)C(=O)N[C@@H](Cc2ccc(-c3ccc(C(=O)O)cc3)cc2)C(=O)N[C@@H](Cc2c[nH]c3ccccc23)C(=O)N[C@@H](Cc2ccc(C(=O)O)cc2)C(=O)NCC(=O)N2C[C@H](N)C[C@H]2C(=O)N[C@@H]([C@@H](C)c2c[nH]c3cccc(Cl)c23)C(=O)N[C@@H](CC(N)=O)C(=O)N1C` [Example 56] (cyclo([Bip(4'-COOH)]W[Phe(4-COOH)]G[Pro(4R-NH2)][Trp(4-Cl)(βS-Me)]N[dNMeA]G[Bip(4'-COOH)]WG[dDab][hTyr])), the IC50 was determined as 0.0207 nM.

For the molecule `C[C@@H]1C(=O)NCC(=O)N[C@@H](Cc2ccc(-c3ccc(C(=O)O)cc3)cc2)C(=O)N[C@@H](Cc2c[nH]c3ccccc23)C(=O)NCC(=O)N[C@H](CCN)C(=O)N[C@@H](CCc2ccc(O)cc2)C(=O)N[C@@H](Cc2ccc(-c3ccc(C(=O)O)cc3)cc2)C(=O)N[C@@H](Cc2c[nH]c3ccccc23)C(=O)N[C@@H](Cc2ccc(C(=O)O)cc2)C(=O)NCC(=O)N2C[C@H](N)C[C@H]2C(=O)N[C@@H]([C@@H](C)c2c[nH]c3cccc(Cl)c23)C(=O)N[C@@H](CCC(N)=O)C(=O)N1C` [Example 57] (cyclo([Bip(4'-COOH)]W[Phe(4-COOH)]G[Pro(4R-NH2)][Trp(4-Cl)(βS-Me)]Q[dNMeA]G[Bip(4'-COOH)]WG[dDab][hTyr])), the IC50 was found to be 0.0873 nM.

Consider `CC(C)C[C@@H]1NC(=O)[C@H](CCCCN)NC(=O)[C@H](Cc2ccc(-c3ccc(C(=O)O)cc3)cc2)NC(=O)CNC(=O)[C@@H](C)N(C)C(=O)[C@H](C)NC(=O)[C@H]([C@@H](C)c2c[nH]c3cccc(F)c23)NC(=O)[C@@H]2C[C@@H](N)CN2C(=O)CNC(=O)[C@H](Cc2ccc(C(=O)O)cc2)NC(=O)[C@H](Cc2c[nH]c3ccccc23)NC(=O)[C@H](Cc2ccc(-c3ccc(C(=O)O)cc3)cc2)NC(=O)[C@H](CCc2ccc(O)cc2)NC(=O)[C@@H](C)NC1=O` [Example 58] (cyclo([Bip(4'-COOH)]W[Phe(4-COOH)]G[Pro(4R-NH2)][Trp(βS-Me,4-F)]A[dNMeA]G[Bip(4'-COOH)]KL[dA][hTyr])), for which the IC50 was found to be 0.247 nM.

The values above are taken from patent publication US20230406885A1, “CYCLIC PEPTIDES FOR TRAPPING INTERLEUKIN-1 BETA” (MERCK SHARP & DOHME LLC, priority 2022, published 2023).
